# Data reported in patent US11958865B1, “Leucine-rich repeat kinase 2 (LRRK2) inhibitors” (H. Lundbeck A/S, priority 2022, dated 2024).
# Where two headings read alike, the source gives them in different places.
# Experiments:
# [1] = Hepatic microsomal intrinsic clearance assay; format: in vitro ADME; conditions: liver microsomes 0.5 mg/mL, 1 μM, NADPH, 1 hour at 37° C., LLOQ 0.36 L/h/kg; for CLint scaled at 1 μM: pooled liver microsomes, pH 7.4
# Protocol: Compounds (final concentration 1 μM, 1% organic) of the invention were incubated for 1 hour at 37° C., with shaking, in phosphate buffer (pH 7.4) containing commercially sourced pooled liver microsomes (final concentration 0.5 mg/mL). […] At designated time points (0, 5, 10, 20, 30 and 60 minutes) ice-cold acetonitrile containing internal standard (300 μL) was added to an incubation well to stop the reaction then mixed and centrifuged (3220 g for 20 minutes at 4° C.). Supernatant was diluted (1:4) with deionized water then analyzed by LC-MS/MS.
# [2] = Hepatocyte intrinsic clearance assay; format: in vitro ADME, Human; conditions: pooled donor, cryopreserved hepatocytes, pH 7.4; human hepatocytes 1×10^6/mL; 0.05 μM; 2 h at 37° C.
# Protocol: Test compounds (final concentration 0.05 μM, 0.05% organic) were incubated for 2 h at 37° C., with shaking, in supplemented Leibovitz L-15 media (pH 7.4) containing commercially sourced, pooled donor, cryopreserved hepatocytes (final concentration 1×10^6 hepatocytes/mL). The CLint reactions (350 μL) were initiated by addition of test compound. Aliquots (25 μL) were taken at 1, 5, 10, 15, 30, 60, 90 and 120 minutes and then protein crashed with ice-cold acetonitrile containing internal standard (150 μL) then centrifuged (1960 g for 20 minutes at 4° C.). Supernatant was diluted (1:4) with deionized water then analyzed by liquid chromatography (LC)-tandem mass spectrometry (MS/MS).
# [3] = Rat brain disposition after oral gavage; format: in vivo, male Sprague-Dawley rats; conditions: male, Sprague-Dawley, oral 5 mg/kg, mean ± stdev
# Protocol: Brain disposition was evaluated in male Sprague-Dawley rats (n=3, standard body weight). Briefly, test compound was formulated as a simple suspension (0.5% HPMC in water) then administered by oral gavage (10 mg/kg, 10 mL/kg or 5 mg/kg, 10 mL/kg). At the designated time point (0.5 or 1 h post dose) rats were sacrificed and terminal blood and brain samples taken. Isolated plasma and brain homogenates were extracted by standard protein precipitation in acetonitrile, containing internal standard. Diluted extracts were analyzed by liquid-chromatography coupled with tandem mass spectrometry detection (LC-MS/MS) using a bioanalytical method. Concentrations of test compound in plasma and brain were quantified against matrix matched calibration standards. The total plasma and brain concentration time data are presented in Table 4 alongside the calculated brain Kp (total brain concentration:total plasma concentration ratio).
# The total brain-to-plasma partition coefficient (brain Kp) is given by the ratio of the total brain concentration and total plasma concentration of the compound according to the equation below: […]
# Based on the measured rat fuplasma and fubrain values and the brain Kp the unbound brain-to-plasma partition coefficient (brain Kp,uu for each compound was calculated. The Kp,uu parameter describes the extent of brain penetration for each compound, i.e. the parameter gives a direct quantitative description of how the blood-brain barrier (BBB) handles the compounds regarding passive transport and active influx/efflux. The brain Kp,uu is given by the equation below: […]
# [4] = Fraction unbound in rat plasma and brain homogenate by equilibrium dialysis; format: in vitro ADME, male Sprague-Dawley rat; conditions: 1 μM, equilibrium dialysis 5 h at 37° C.; for fubrain (% free): rat brain homogenate; for fuplasma (% free): rat plasma
# Protocol: The fraction of unbound compound in male Sprague-Dawley rat plasma (fuplasma) and brain homogenate (fubrain) were determined by equilibrium dialysis using 96-well HTD-dialysis plates with dialysis membranes (molecular weight cut off 12-14 KDa). One side of the HTD-dialysis plate was loaded with matrix (plasma or brain homogenate) and the other side with buffer (100 mM sodium phosphate buffer, pH 7.4). Test compounds were dissolved in DMSO then spiked (5 μL of 0.2 mM) into blank (995 μL) plasma or diluted brain homogenate (1:4 ratio in phosphate buffer) giving a final nominal concentration 1 μM (≤0.5% DMSO). The matrices were loaded into respective chambers and equilibrated against phosphate buffer for 5 h at 37° C. (in a humidified air incubator with 5% CO2 with shaking). Samples from both chambers (buffer and plasma or brain homogenate) were aliquoted to fresh 96-well polypropylene plates then matrix matched using an equal volume of opposite blank matrix before extraction with cold solvent (3 volumes acetonitrile) containing an appropriate bioanalytical internal standard. After centrifugation (20 min, 3200 g, 4° C.) the supernatants were diluted with appropriate volumes of water and compound concentrations were quantified by LC/MS-MS against matrix matched calibration standards. The fuplasma and fubrain were calculated according to equation 4 below.
# [formula] Where [F] is the compound concentration on the buffer (receiver) side of the membrane; [T] is the compound concentration on the plasma or brain (donor) side of the membrane; D is the matrix dilution factor which is determined as D=4 for brain matrix and D=1 for plasma matrix in these assays.
# [5] = brain, n=3, read-out: Total brain concentration
# [6] = plasma, n=3, read-out: Total plasma concentration
CLint scaled at 1 μM [1] [mL/min/kg],CLint scaled at 0.05 μM [2] [mL/min/kg],"Kp at 0.5 h ([3]; brain, 0.5 h, n=3)","Kp uu at 0.5 h ([3]; brain, 0.5 h, n=3)","concentration at 0.5 h ([3]; brain, 0.5 h, n=3, read-out: Total brain concentration) [ng/g]","concentration at 0.5 h ([3]; plasma, 0.5 h, n=3, read-out: Total plasma concentration) [ng/mL]",fubrain (% free) [4] [% free],fuplasma (% free) [4] [% free],"Kp at 1 h ([3]; brain, n=3)","Kp uu at 1 h ([3]; brain, n=3)","concentration at 1 h [3, 5] [ng/g]","concentration at 1 h [3, 6] [ng/mL]",Hepatic microsomal CLint (L/h/kg) [1],SMILES
21.3,15.5,–,–,–,–,–,–,–,–,–,–,–,"[2H]C([2H])([2H])c1c2c(nn1-c1cc(F)cnc1OC)OCCCn1nc(Cl)c3cnc(nc31)N2 (single isomer, unassigned) [Example 29, 8-Chloro-2-(5-fluoro-2-methoxypyridin-3-yl)-3-(methyl-d3)-2,4,12,13-tetrahydro-11H-5,7-(azenometheno)dipyrazolo[3,4-b:5′,1′-g][1]oxa[4,6,8]triazacycloundecine]"
12.3,< 4,–,–,–,–,5.3,11.7,1.1 ± 0.2,0.51 ± 0.07,649 ± 99,586 ± 82,–,"Cc1cnc(C)c(-n2nc3c(c2C)Nc2ncc4c(Cl)nn(c4n2)CCCO3)c1 [Example 11, 8-Chloro-2-(2,5-dimethylpyridin-3-yl)-3-methyl-2,4,12,13-tetrahydro-11H-5,7-(azenometheno)dipyrazolo[3,4-b:5′,1′-g][1]oxa[4,6,8]triazacycloundecine]"
< 6,19.8,–,–,–,–,–,–,–,–,–,–,–,"[2H]C([2H])([2H])c1c2c(nn1-c1ccc(C)nc1C)OCCCn1nc(Cl)c3cnc(nc31)N2 [Example 25, 8-Chloro-2-(2,6-dimethylpyridin-3-yl)-3-(methyl-d3)-2,4,12,13-tetrahydro-11H-5,7-(azenometheno)dipyrazolo[3,4-b:5′,1′-g][1]oxa[4,6,8]triazacycloundecine]"

# More lines, now with the values behind:
SMILES,CLint scaled at 1 μM [1] [mL/min/kg],CLint scaled at 0.05 μM [2] [mL/min/kg],"Kp at 0.5 h ([3]; brain, 0.5 h, n=3)","Kp uu at 0.5 h ([3]; brain, 0.5 h, n=3)","concentration at 0.5 h ([3]; brain, 0.5 h, n=3, read-out: Total brain concentration) [ng/g]","concentration at 0.5 h ([3]; plasma, 0.5 h, n=3, read-out: Total plasma concentration) [ng/mL]",fubrain (% free) [4] [% free],fuplasma (% free) [4] [% free],"Kp at 1 h ([3]; brain, n=3)","Kp uu at 1 h ([3]; brain, n=3)","concentration at 1 h [3, 5] [ng/g]","concentration at 1 h [3, 6] [ng/mL]",Hepatic microsomal CLint (L/h/kg) [1]
"Cc1ncccc1-n1nc2c(c1C)Nc1ncc3c(Cl)nn(c3n1)CCCO2 [Example 3, 8-Chloro-3-methyl-2-(2-methylpyridin-3-yl)-2,4,12,13-tetrahydro-11H-5,7-(azenometheno)dipyrazolo[3,4-b:5′,1′-g][1]oxa[4,6,8]triazacycloundecine]",7.17,6,1.1 ± 0.1,0.52 ± 0.06,414 ± 97,362 ± 38,10.4,22.6,–,–,–,–,–
"COc1ncc(F)cc1-n1nc2c(c1C)Nc1ncc3c(Cl)nn(c3n1)CCCO2 [Example 6, 8-Chloro-2-(5-fluoro-2-methoxypyridin-3-yl)-3-methyl-2,4,12,13-tetrahydro-11H-5,7-(azenometheno)dipyrazolo[3,4-b:5′,1′-g][1]oxa[4,6,8]triazacycloundecine]",21,14.3,–,–,–,–,3.7,8.9,3 ± 0.06,1.22 ± 0.03,205 ± 21,69 ± 7,–
"Cc1ccc(-n2nc3c(c2C)Nc2ncc4c(Cl)nn(c4n2)CCCO3)c(C)n1 [Example 9, 8-Chloro-2-(2,6-dimethylpyridin-3-yl)-3-methyl-2,4,12,13-tetrahydro-11H-5,7-(azenometheno)dipyrazolo[3,4-b:5′,1′-g][1]oxa[4,6,8]triazacycloundecine]",–,16.2,–,–,–,–,7.4,10.2,1.4 ± 0.2,1 ± 0.12,906 ± 87,664 ± 47,BQL**
"Cc1ncc(F)cc1-n1nc2c(c1C)Nc1ncc3c(Cl)nn(c3n1)CCCO2 [Example 10, 8-Chloro-2-(5-fluoro-2-methylpyridin-3-yl)-3-methyl-2,4,12,13-tetrahydro-11H-5,7-(azenometheno)dipyrazolo[3,4-b:5′,1′-g][1]oxa[4,6,8]triazacycloundecine]",20,5.5,–,–,–,–,9.3,22.7,2.2 ± 0.3,0.89 ± 0.14,524 ± 79,246 ± 61,–
